Measurements: US20180222953A1, “SARCOMERE BIOSENSOR AND METHODS OF USE THEREOF” (REGENTS OF THE UNIVERSITY OF MINNESOTA, priority 2017, published 2018)
“Also recorded” adds a separate entry of the source.

Tests used:
[1] = tested on: sarcomere activation (Sarcometer cTnC biosensor) in live cardiac myocytes; test: Sarcometer Clover fluorescence (FRET) transient in live cardiac myocytes before and after treatment; type: cell-based, mouse; settings: 0.2 Hz stimulation; for Sarcometer kinetics / Clover peak fluorescence intensity (Sarcometer amplitude): 37° C.
Protocol: (§1) For real-time simultaneous sarcomere length and biosensor measurements, a modified Ionoptix Calcium and Contractility system was used. Sarcomere length changes were detected at 240 Hz sampling rate and fluorescence measurements were detected at 1000 Hz sampling rate with two photomultipler tubes. Measurements were made at 37° C. and a stimulation frequency of 0.2 Hz unless specified otherwise. For biosensor measurements, a Xenon arc lamp was used and filtered with a 500/10 nm hard-coated bandpass filter before entering the microscope turret. The microscope turret featured a 505 dichroic long pass filter. Fluorescent light from the sample was shunted through microscope side port where it was split by a dichroic mirror with light above 650 nm going towards the Myocam for sarcomere length detection and light below 650 nm being further shunted to an additional filter cube. In this final filter cube, a 565 nm dichroic long pass mirror split the light again. Light with wavelengths below 565 nm corresponding to the Clover protein was further cleaned up by a 534/20 nm hard-coated bandpass filter before reaching the photomultiplier tuber and light with wavelengths above 565 nm was further cleaned up by a 592/43 nm hard-coated bandpass filter before reaching the photomultiplier tube. For calcium fluorescence measurements, the mouse myocytes were pre-loaded for 20 minutes in M199 solution containing 1 μM Fura-2 AM (ThermoFisher Cat #F1221), and a ten minute period was allowed for deesterification. For calcium fluorescence measurements the 360/380 nm ratio was determined. For each myocyte, several contractions were measured, averaged, and analyzed using the IonWizard software.
Eight to twelve week old mice of both sexes were injected with 0.25 cc 10,000U/ml heparin and anesthetized 10 minutes later with 0.15 cc 50 mg/ml sodium pentobarbital. The heart was rapidly excised and placed in ice cold Krebs-Henseleit buffer modified with 25 mM HEPES, 10 mM 2,3-Butanedione monoxime, 30 mM Taurine and the aorta was cannulated. The mounted heart was placed on a perfusion system at 37° C. The heart was perfused with calcium free modified Krebs-Henseleit buffer with 2 mg/ml crudely purified collagenase for 10 minutes. The heart was then removed from the cannula, the atria were removed and the ventricles were dissected into pieces approximately 2 mm in diameter. The dissected ventricular tissue was then gently mechanically triturated in collagenase to liberate isolated myocytes. After brief low-speed centrifugation, isolated myocytes were resuspended in nominal calcium and 0.025 mg/ml bovine serum albumin in a modified Kreb-Henseleit buffer. After the final trituration step, calcium was added back to the buffer step wise until reaching a final concentration of 2 mM CaCl2. Myocytes were plated on laminin-coated (ThermoFisher cat#23017015) glass coverslips in M199 media (Gibco cat#31100-035) containing 5% fetal bovine serum and incubated for one hour at 37° C. with 5% CO2. After the one hour incubation, the media was changed to serum free M199 media and the myocytes were used for experiments within 5 hours.
For real-time simultaneous sarcomere length and Sarcometer biosensor measurements, a modified Ionoptix Calcium and Contractility system was used. Sarcomere length changes were detected at 240 Hz sampling rate and fluorescence measurements were detected at 1000 Hz sampling rate with two photomultipler tubes (FIG. 9). Measurements were made at 37° C. and a stimulation frequency of 0.2 Hz unless specified otherwise. For Sarcometer measurements, a Xenon arc lamp was used and filtered with a 500/10 nm hard-coated bandpass filter before entering the microscope turret. The microscope turret featured a 505 dichroic long pass filter. […]

[2] = tested on: isolated adult cardiac myocytes; test: Sarcomere length (SL) shortening in isolated Sarcometer Tg cardiac myocytes before and after treatment; type: cell-based, mouse; settings: 0.2 Hz stimulation; for SL contractile amplitude: 37° C.
Protocol: Mice were injected with 0.25 cc 10,000U/ml heparin (McKesson cat#NDC 63739-964-25) and anesthetized 10 minutes later with 0.15 cc 50 mg/ml sodium pentobarbital (Vortech Pharmaceuticals). The heart was rapidly excised and placed in ice cold Krebs-Henseleit buffer (Sigma cat#K3753) modified with 25 mM HEPES (Sigma cat#H4034), 10 mM 2,3-Butanedione monoxime (Sigma cat#B0753), 30 mM Taurine (Sigma cat#T0625) and the aorta was cannulated. The mounted heart was placed on a perfusion system at 37° C. The heart was perfused with calcium free modified Krebs-Henseleit buffer with 2 mg/ml crudely purified collagenase for 10 minutes. The heart was then removed from the cannula, the atria were removed and the ventricles were dissected into pieces approximately 2 mm in diameter. The dissected ventricular tissue was then gently mechanically triturated in collagenase to liberate isolated myocytes. After brief low-speed centrifugation, isolated myocytes were resuspended in nominal calcium and 0.025 mg/ml bovine serum albumin (HyClone cat#SH30574.03) in a modified Kreb-Henseleit buffer. After the final trituration step, calcium was added back to the buffer step wise until reaching a final concentration of 2 mM CaCl2. Myocytes were plated on laminin-coated (ThermoFisher cat#23017015) glass coverslips in M199 media (Gibco cat#31100-035) containing 5% fetal bovine serum (HyClone cat#SH30071.03) and incubated for one hour at 37° C. with 5% CO2. After the one hour incubation, the media was changed to serum free M199 media and the myocytes were used for experiments within 5 hours.
as §1
Eight to twelve week old mice of both sexes were injected with 0.25 cc 10,000U/ml heparin and anesthetized 10 minutes later with 0.15 cc 50 mg/ml sodium pentobarbital. The heart was rapidly excised and placed in ice cold Krebs-Henseleit buffer modified with 25 mM HEPES, 10 mM 2,3-Butanedione monoxime, 30 mM Taurine and the aorta was cannulated. The mounted heart was placed on a perfusion system at 37° C. The heart was perfused with calcium free modified Krebs-Henseleit buffer with 2 mg/ml crudely purified collagenase for 10 minutes. The heart was then removed from the cannula, the atria were removed and the ventricles were dissected into pieces approximately 2 mm in diameter. […]

TnC hydrophobic patch = TnC hydrophobic patch (Homo sapiens, UniProt P63316); settings: binds directly to the TnC hydrophobic patch; Oleszczuk et al. 2010; cited from earlier work
[3] = tested on: cardiac myocyte calcium transients; test: Fura-2 AM calcium transients in single cardiac myocytes; type: cell-based, mouse; settings: 10 μM, n=4 pairs
Protocol: For real-time simultaneous sarcomere length and biosensor measurements, a modified Ionoptix Calcium and Contractility system was used. Sarcomere length changes were detected at 240 Hz sampling rate and fluorescence measurements were detected at 1000 Hz sampling rate with two photomultipler tubes. Measurements were made at 37° C. and a stimulation frequency of 0.2 Hz unless specified otherwise. For biosensor measurements, a Xenon arc lamp was used and filtered with a 500/10 nm hard-coated bandpass filter before entering the microscope turret. The microscope turret featured a 505 dichroic long pass filter. […] For calcium fluorescence measurements, the mouse myocytes were pre-loaded for 20 minutes in M199 solution containing 1 μM Fura-2 AM (ThermoFisher Cat #F1221), and a ten minute period was allowed for deesterification. For calcium fluorescence measurements the 360/380 nm ratio was determined. For each myocyte, several contractions were measured, averaged, and analyzed using the IonWizard software.
For real-time simultaneous sarcomere length and Sarcometer biosensor measurements, a modified Ionoptix Calcium and Contractility system was used. Sarcomere length changes were detected at 240 Hz sampling rate and fluorescence measurements were detected at 1000 Hz sampling rate with two photomultipler tubes (FIG. 9). […] For calcium fluorescence measurements the 360/380 nm ratio was determined. […]

[4] = 10 μM, before vs after treatment
[5] = 10 μM, before vs after treatment, listed as PNB

For `COC(=O)N1CCN(Cc2cccc(NC(=O)Nc3ccc(C)nc3)c2F)CC1` [Omecamtiv mecarbil], the Sarcometer kinetics ([1]; 250 nM) was “no effect”, the “Clover peak fluorescence intensity (Sarcometer amplitude)” value (from here on “Clover peak fluorescence intensity”) ([1]; 250 nM, n=17 pairs) was “no difference in peak fluorescence intensity” and the “Clover peak fluorescence intensity” value ([1]; 250 nM, n=17 pairs, listed as OM) was “no effect”. The SL contractile amplitude ([2]; 250 nM, n=14 pairs) was “increased contractile amplitude” and the SL contractile amplitude ([2]; 250 nM, n=14 pairs, listed as OM) was “significant increase SL amplitude”.
In the case of `COc1ccc(-c2nc3ccc(C4=NNC(=O)CC4C)cc3[nH]2)cc1` (centres unmarked) [Pimobendan], the “Clover peak fluorescence intensity” value [1, 4] is reported as “significant increase in Clover signal amplitude; also recorded: increased peak fluorescence intensity” and the SL contractile amplitude [2, 4] is reported as “increased SL amplitude; also recorded: increased contractile amplitude”.
In the case of `NCCCCCCNS(=O)(=O)c1cccc2c(Cl)cccc12` [W7, N-aminohexyl-5-chloro-1-naphthalenesulfonamide], the “decrease of TnI switch peptide binding” value (TnC hydrophobic patch) is given as 13 fold, the “Clover peak fluorescence intensity” value [1, 4] is given as “significantly depressed; also recorded: decreased peak fluorescence intensity” and the “calcium transient amplitude or kinetics” value [3] is given as “unaltered; also recorded: no changes in calcium amplitude or kinetics”. For the same compound, the SL contractile amplitude [2, 4] was “reduced SL amplitude; also recorded: decreased contractile amplitude”.
In the case of `CC(C)NCC(O)c1ccc(O)c(O)c1` (centres unmarked) [isoproterenol], the “Clover fluorescence kinetics (transient decay rate)” value ([1]; 50 nM, 30° C., n=24 pairs) is reported as “significantly faster; also recorded: faster kinetics”, the “peak Clover fluorescence intensity” value ([1]; 50 nM, 30° C., n=24 pairs) is reported as “increased peak Clover fluorescence intensity” and the SL shortening amplitude ([2]; 50 nM, 30° C., before vs after treatment, n=34 pairs) is reported as “increase myocyte contraction; also recorded: increased shortening amplitude”. The “sarcomere dynamics kinetics (SL relaxation)” value ([2]; 50 nM, 30° C., n=34 pairs) was “speed SL relaxation; also recorded: faster kinetics”.
With `Cc1ccc2c(c1)C(=O)[C@]1(O)CCN(c3ccc([N+](=O)[O-])cc3)C1=N2` [para-Nitroblebbistatin] the Sarcometer kinetics ([1]; 10 μM) was “no significant effect”, the “Clover peak fluorescence intensity” value [1, 4] was “no difference in peak fluorescence intensity” and the “Clover peak fluorescence intensity” value [1, 5] was “no significant effect”. For the same compound, the SL contractile amplitude [2, 4] was “decreased contractile amplitude” and the SL contractile amplitude [2, 5] was “effectively blocked contraction”.
